Reference: patent publication US7767659B2, “Synthesis of naturally occurring ecteinascidins and related compounds” (Pharma Mar, S.A., priority 2002, dated 2010)

Columns and labels:
[1] = test system: HeLa; assay: Inhibition of cells growth by colorimetric assay (SRB); conditions: Homo sapiens, HeLa, 48 h
Method: (§1) This form of the assay employs 96 well cell culture microplates of 9 mm diameter (Faircloth, 1988; Mosmann, 1983). Most of the cell lines are obtained from American Type Culture Collection (ATCC) derived from different human cancer types.
(§2) Cells are maintained in RPMI 1640 10% FBS, supplemented with 0.1 g/l penicillin and 0.1 g/l streptomycin sulfate and then incubated at 37° C., 5% CO2 and 98% humidity. For the experiments, cells were harvested from subconfluent cultures using trypsin and resuspended in fresh medium before plating.
(§3) Cells are seeded in 96 well microtiter plates, at 5×10^3 cells per well in aliquots of 195 μl medium, and they are allowed to attach to the plate surface by growing in drug free medium for 18 hours. Afterward, samples are added in aliquots of 5 μl in a ranging from 10 to 10^−8 μg/ml, dissolved in DMSO/EtOH/PBS (0.5:0.5:99). After 48 hours exposure, the antitumor effect are measured by the SRB methodology: cells are fixed by adding 50 μl of cold 50% (wt/vol) trichloroacetic acid (TCA) and incubating for 60 minutes at 4° C. Plates are washed with deionized water and dried. One hundred μl of SRB solution (0.4% wt/vol in 1% acetic acid) is added to each microtiter well and incubated for 10 minutes at room temperature. Unbound SRB is removed by washing with 1% acetic acid. Plates are air dried and bound stain is solubilzed with Tris buffer. Optical densities are read on a automated spectrophotometric plate reader at a single wavelength of 490 nm.
(§4) The values for mean +/− SD of data from triplicate wells are calculated. Some parameters for cellular responses can be calculated: GI=growth inhibition, TGI=total growth inhibition (cytostatic effect) and LC=cell killing (cytotoxic effect).

[2] = test system: K-562; assay: as above; conditions: Homo sapiens, K562, 48 h
Method: as §1, §2, §3, §4

[3] = test system: SK-MEL-28; assay: as above; conditions: Homo sapiens, SK-MEL-28, 48 h
Method: as §1, §2, §3, §4

[4] = test system: SK-BR-3; assay: as above; conditions: Homo sapiens, SK-BR-3, 48 h
Method: as §1, §2, §3, §4

[5] = test system: LNCaP; assay: as above; conditions: Homo sapiens, LNCaP, 48 h
Method: as §1, §2, §3, §4

[6] = test system: DU-145; assay: as above; conditions: Homo sapiens, DU-145, 48 h
Method: as §1, §2, §3, §4

[7] = test system: PANC-1; assay: as above; conditions: Homo sapiens, PANC-1, 48 h
Method: as §1, §2, §3, §4

[8] = test system: IGROV-1; assay: as above; conditions: Homo sapiens, IGROV-1, 48 h
Method: as §1, §2, §3, §4

[9] = test system: HeLa-APL; assay: as above; conditions: Homo sapiens, 48 h
Method: as §1, §2, §3, §4

[10] = test system: IGROV-ET; assay: as above; conditions: Homo sapiens, 48 h
Method: as §1, §2, §3, §4

[11] = test system: LoVo-Dox; assay: as above; conditions: Homo sapiens, 48 h
Method: as §1, §2, §3, §4

[12] = test system: A-549; assay: cells; conditions: Homo sapiens, A549, 48 h
How it was run: (§5)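 Colorimetric SRB read (490 nm) on triplicate wells after 48 h at 37 °C, 5% CO2. Dose range 10 to 10^−8 μg/ml; 5×10^3 cells/well pre-attached 18 h.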

[13] = test system: LoVo; assay: cells; conditions: Homo sapiens, LoVo, 48 h
How it was run: as §5

[14] = test system: HT-29; assay: cells; conditions: Homo sapiens, HT-29, 48 h
How it was run: as §5

## COC1=C(C)C(=O)C2=C(C1=O)C1C3[C@@H]4SCC(=O)C(=O)OC[C@@H](c5c6c(c(C)c(OC(C)=O)c54)OCO6)N3[C@@H](O)[C@H](C2)N1C (stereo partly drawn) [Et-594-quinone]
[1]; read-out: HELA GI50
  GI50: 0.343 µM
[1]; read-out: HELA LC50
  CC50: 1.12 µM
[1]; read-out: HELA TGI
  IC (TGI): 0.62 µM
[2]; read-out: K562 GI50
  GI50: 0.137 µM
[2]; read-out: K562 LC50
  CC50: 1.62 µM
[2]; read-out: K562 TGI
  IC (TGI): 0.478 µM
[3]; read-out: MEL-28 GI50
  GI50: 0.413 µM
[3]; read-out: MEL-28 LC50
  CC50: 1.32 µM
[3]; read-out: MEL-28 TGI
  IC (TGI): 0.738 µM
[4]; read-out: SK-BR3 GI50
  GI50: 0.302 µM
[4]; read-out: SK-BR3 LC50
  CC50: 1.16 µM
[4]; read-out: SK-BR3 TGI
  IC (TGI): 0.593 µM
[5]; read-out: LNCAP GI50
  GI50: 0.274 µM
[5]; read-out: LNCAP LC50
  CC50: 0.901 µM
[5]; read-out: LNCAP TGI
  IC (TGI): 0.498 µM
[6]; read-out: DU145 GI50
  GI50: 1.99 µM
[6]; read-out: DU145 LC50
  CC50: 14.6 µM
[6]; read-out: DU145 TGI
  IC (TGI): 5.39 µM
[7]; read-out: PANC-1 GI50
  GI50: 1.58 µM
[7]; read-out: PANC-1 LC50
  CC50: 14.9 µM
[7]; read-out: PANC-1 TGI
  IC (TGI): 4.86 µM
[8]; read-out: IGROV GI50
  GI50: 0.452 µM
[8]; read-out: IGROV LC50
  CC50: 3.64 µM
[8]; read-out: IGROV TGI
  IC (TGI): 0.958 µM
[9]; read-out: HELA-APL GI50
  GI50: 0.398 µM
[9]; read-out: HELA-APL LC50
  CC50: 1.14 µM
[9]; read-out: HELA-APL TGI
  IC (TGI): 0.674 µM
[10]; read-out: IGROV-ET GI50
  GI50: 4.37 µM
[10]; read-out: IGROV-ET LC50
  CC50: 16.3 µM
[10]; read-out: IGROV-ET TGI
  IC (TGI): 9.11 µM
[11]; read-out: LOVO-DOX GI50
  GI50: 6.27 µM
[11]; read-out: LOVO-DOX LC50
  CC50: 16.3 µM
[11]; read-out: LOVO-DOX TGI
  IC (TGI): 13.1 µM
[12]; read-out: A549 GI50
  GI50: 2.35 µM
[12]; read-out: A549 LC50
  CC50: 10.3 µM
[12]; read-out: A549 TGI
  IC (TGI): 4.91 µM
[13]; read-out: LOVO GI50
  GI50: 0.759 µM
[13]; read-out: LOVO LC50
  CC50: 16.3 µM
[13]; read-out: LOVO TGI
  IC (TGI): 2.91 µM
[14]; read-out: HT29 GI50
  GI50: 0.653 µM
[14]; read-out: HT29 LC50
  CC50: 16.3 µM
[14]; read-out: HT29 TGI
  IC (TGI): 1.71 µM
